Assay [1] addresses T1, Human Recombinant Glucocorticoid Receptor (Homo sapiens, UniProt P04150).
T1 construct: This GR was a full-length steroid hormone receptor likely to be associated with heat-shock and other endogenous proteins; host or cells: baculovirus-infected insect cells
T1 sequence (P04150 1-777): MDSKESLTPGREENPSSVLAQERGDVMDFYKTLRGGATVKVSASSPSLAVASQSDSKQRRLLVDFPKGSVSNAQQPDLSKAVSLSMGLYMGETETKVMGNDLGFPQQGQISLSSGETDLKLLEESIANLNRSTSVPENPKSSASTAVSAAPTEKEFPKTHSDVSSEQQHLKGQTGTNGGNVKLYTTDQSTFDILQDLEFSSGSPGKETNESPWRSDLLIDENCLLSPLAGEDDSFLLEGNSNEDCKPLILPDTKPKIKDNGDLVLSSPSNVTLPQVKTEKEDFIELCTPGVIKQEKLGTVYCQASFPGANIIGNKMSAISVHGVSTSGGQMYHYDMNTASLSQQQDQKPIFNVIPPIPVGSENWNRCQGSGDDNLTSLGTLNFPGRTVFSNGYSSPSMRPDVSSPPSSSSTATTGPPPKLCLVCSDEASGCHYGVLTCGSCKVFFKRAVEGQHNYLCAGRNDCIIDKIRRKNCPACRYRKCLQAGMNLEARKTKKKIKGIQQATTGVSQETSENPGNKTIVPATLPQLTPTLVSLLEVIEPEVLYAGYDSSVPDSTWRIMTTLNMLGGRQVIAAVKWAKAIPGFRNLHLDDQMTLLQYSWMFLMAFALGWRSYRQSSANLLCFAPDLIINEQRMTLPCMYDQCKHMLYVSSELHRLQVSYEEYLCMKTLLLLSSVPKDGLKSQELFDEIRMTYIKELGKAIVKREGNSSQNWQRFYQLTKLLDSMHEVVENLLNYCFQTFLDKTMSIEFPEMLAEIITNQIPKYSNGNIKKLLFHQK
Briefly: Glucocorticoid receptor binding displacement assay with 3H-dexamethasone. The settings on record: displacement of 2.5 nM 3H-dexamethasone; Ki from IC50 by Cheng-Prusoff; read-out: GR Binding Ki.

Assay [2] concerns the target T2, glucocorticoid receptors (GR) in SW1353/MMTV-5 cells (Homo sapiens, UniProt P04150).
T2 construct: contains endogenous glucocorticoid receptors; endogenous in cells; host or cells: SW1353/MMTV-5 (human chondrosarcoma, stably transfected with the pMAMneo-Luc reporter only)
T2 sequence (P04150 1-777): T1 sequence (P04150 1-777)
Briefly: GR functional assay using SW1353/MMTV-5 cells (MMTV-luciferase reporter). It counts as cell-based. The gist of the method:
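Human chondrosarcoma line stably carrying firefly luciferase under an MMTV LTR glucocorticoid-responsive element, with endogenous GR. Cells were plated in 96-well plates and held 24 hrs in geneticin-free medium without CO2.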

As for `O=C(OC1CCC1)[C@]12Cc3cnn(-c4ccc(F)cc4)c3C=C1CCN(S(=O)(=O)c1ccc(N3CCOCC3)nc1)C2` [Example 50, (R)-1-(4-Fluorophenyl)-6-(6-morpholin-4-yl-pyridine-3-sulfonyl]-1,4,5,6,7,8-hexahydro-1,2,6-triaza-cyclopenta[b]naphthalene-4a-carboxylic acid cyclobutyl ester], the Ki – broadly, the dissociation constant of the complex between target and ligand, obtained from inhibition or displacement – in assay [1] was 0.5 to 1 nM; in assay [2] it was less than 10 nM.

Regarding `O=C(OCC1CC1)[C@]12Cc3cnn(-c4ccc(F)cc4)c3C=C1CCN(S(=O)(=O)c1ccc(N3CCOCC3)nc1)C2` [Example 51, (R)-1-(4-Fluorophenyl)-6-(6-morpholin-4-yl-pyridine-3-sulfonyl]-1,4,5,6,7,8-hexahydro-1,2,6-triaza-cyclopenta[b]naphthalene-4a-carboxylic acid cyclopropylmethyl ester], the figures for the Ki in assay [1] and in assay [2] were 0.5 to 1 nM and less than 10 nM, respectively.

With `O=C(OCC1CCC1)[C@]12Cc3cnn(-c4ccc(F)cc4)c3C=C1CCN(S(=O)(=O)c1ccc(N3CCOCC3)nc1)C2` [Example 52, (R)-1-(4-Fluorophenyl)-6-(6-morpholin-4-yl-pyridine-3-sulfonyl]-1,4,5,6,7,8-hexahydro-1,2,6-triaza-cyclopenta[b]naphthalene-4a-carboxylic acid cyclobutylmethyl ester], the Ki was 0.5 to 1 nM in assay [1] and less than 10 nM in assay [2].

As to `O=C(OCC1CC(O)C1)[C@]12Cc3cnn(-c4ccc(F)cc4)c3C=C1CCN(S(=O)(=O)c1ccc(N3CCOCC3)nc1)C2` (stereo partly drawn) [Example 53, (R)-1-(4-Fluorophenyl)-6-(6-morpholin-4-yl-pyridine-3-sulfonyl]-1,4,5,6,7,8-hexahydro-1,2,6-triaza-cyclopenta[b]naphthalene-4a-carboxylic acid 3-hydroxycyclobutylmethyl ester], the Ki is greater than 1 nM in assay [1] and 10 to 50 nM in assay [2].

Take `CC1(COC(=O)[C@]23Cc4cnn(-c5ccc(F)cc5)c4C=C2CCN(S(=O)(=O)c2ccc(N4CCOCC4)nc2)C3)COC1` [Example 54, (R)-1-(4-Fluorophenyl)-6-(6-morpholin-4-yl-pyridine-3-sulfonyl]-1,4,5,6,7,8-hexahydro-1,2,6-triaza-cyclopenta[b]naphthalene-4a-carboxylic acid 3-methyloxetan-3-ylmethyl ester]: the Ki is greater than 1 nM in assay [1] and greater than 50 nM in assay [2].

For `O=C(OCCO)[C@]12Cc3cnn(-c4ccc(F)cc4)c3C=C1CCN(S(=O)(=O)c1ccc(N3CCOCC3)nc1)C2` [Example 55, (R)-1-(4-Fluorophenyl)-6-(6-morpholin-4-yl-pyridine-3-sulfonyl]-1,4,5,6,7,8-hexahydro-1,2,6-triaza-cyclopenta[b]naphthalene-4a-carboxylic acid 2-hydroxethyl ester], the Ki in assay [1] is greater than 1 nM; in assay [2], greater than 50 nM.

With `CN(C)CCOC(=O)[C@]12Cc3cnn(-c4ccc(F)cc4)c3C=C1CCN(S(=O)(=O)c1ccc(N3CCOCC3)nc1)C2` [Example 56, (R)-1-(4-Fluorophenyl)-6-(6-morpholin-4-yl-pyridine-3-sulfonyl]-1,4,5,6,7,8-hexahydro-1,2,6-triaza-cyclopenta[b]naphthalene-4a-carboxylic acid 2-dimethylaminoethyl ester], the Ki in assay [1] was greater than 1 nM; in assay [2], greater than 50 nM.

For `Cc1cc(COC(=O)[C@]23Cc4cnn(-c5ccc(F)cc5)c4C=C2CCN(S(=O)(=O)c2ccc(N4CCOCC4)nc2)C3)no1` [Example 57, (R)-1-(4-Fluorophenyl)-6-(6-morpholin-4-yl-pyridine-3-sulfonyl]-1,4,5,6,7,8-hexahydro-1,2,6-triaza-cyclopenta[b]naphthalene-4a-carboxylic acid 5-methylisoxazol-3-ylmethyl ester], the Ki in assay [1] was in the range of 0.5 to 1 nM; in assay [2], 10 to 50 nM.

With `O=C(OCC1CC1)[C@]12Cc3cnn(-c4ccc(F)cc4)c3C=C1CCN(S(=O)(=O)c1ccc(C(F)(F)F)nc1)C2` [Example 58], the results for the Ki in assay [1] and in assay [2] were 0.5 to 1 nM and less than 10 nM, respectively.

Turning to `COc1ccc(S(=O)(=O)N2CCC3=Cc4c(cnn4-c4ccc(F)cc4)C[C@]3(C(=O)OCC3CCC3)C2)cn1` [Example 59, (R)-1-(4-Fluorophenyl)-6-(6-methoxypyridine-3-sulfonyl)-1,4,5,6,7,8-hexahydro-1,2,6-triaza-cyclopenta[b]naphthalene-4a-carboxylic acid cyclobutylmethyl ester], the Ki in assay [1] was 0.5 to 1 nM; in assay [2], less than 10 nM.

Consider `Cc1cc(COC(=O)[C@]23Cc4cnn(-c5ccc(F)cc5)c4C=C2CCN(S(=O)(=O)c2ccc(N4CC[C@@H](F)C4)nc2)C3)no1` [Example 60, (R)-1-(4-Fluorophenyl)-6-[6-((R)-3-fluoropyrrolidin-1-yl)-pyridine-3-sulfonyl]-1,4,5,6,7,8-hexahydro-1,2,6-triaza-cyclopenta[b]naphthalene-4a-carboxylic acid 5-methylisoxazol-3-ylmethyl ester], for which the Ki in assay [1] is 0.5 to 1 nM; in assay [2], 10 to 50 nM.

Take `O=C(OCC1CC(O)C1)[C@]12Cc3cnn(-c4ccc(F)cc4)c3C=C1CCN(S(=O)(=O)c1ccc(N3CC[C@@H](F)C3)nc1)C2` (stereo partly drawn) [Example 61, (R)-1-(4-Fluorophenyl)-6-[6-((R)-3-fluoropyrrolidin-1-yl)-pyridine-3-sulfonyl]-1,4,5,6,7,8-hexahydro-1,2,6-triaza-cyclopenta[b]naphthalene-4a-carboxylic acid 3-hydroxy cyclobutylmethyl ester]: the Ki is greater than 1 nM in assay [1] and 10 to 50 nM in assay [2].

For the compound `O=S(=O)(c1ccc(N2CCOCC2)nc1)N1CCC2=Cc3c(cnn3-c3ccc(F)cc3)C[C@]2(CN2CC[C@H](O)C2)C1` [Example 62, (S)-1-[(S)-1-(4-Fluorophenyl)-6-[6-morpholin-4-yl-pyridine-3-sulfonyl)-1,4,5,6,7,8-hexahydro-1,2,6-triaza-cyclopenta[b]naphthalene-4a-ylmethyl]-pyrrolidin-3-ol], the Ki in assay [1] was greater than 1 nM; in assay [2], greater than 50 nM.

In the case of `O=S(=O)(c1ccc(N2CCOCC2)nc1)N1CCC2=Cc3c(cnn3-c3ccc(F)cc3)C[C@]2(CN2CC[C@@H](O)C2)C1` [Example 63, (R)-1-[(S)-1-(4-Fluorophenyl)-6-[6-morpholin-4-yl-pyridine-3-sulfonyl)-1,4,5,6,7,8-hexahydro-1,2,6-triaza-cyclopenta[b]naphthalene-4a-ylmethyl]-pyrrolidin-3-ol], the Ki in assay [1] is greater than 1 nM; in assay [2] it was 10 to 50 nM.

Take `COCCOC[C@]12Cc3cnn(-c4ccc(F)cc4)c3C=C1CCN(S(=O)(=O)c1ccc(N3CCOCC3)nc1)C2` [Example 64, (R)-1-(4-Fluoro-phenyl)-4a-(2-methoxy-ethoxymethyl)-6-(6-morpholin-4-yl-pyridine-3-sulfonyl)-4,4a,5,6,7,8-hexahydro-1H-1,2,6-traza-cyclopenta[b]naphthalene]: the Ki is 0.5 to 1 nM in assay [1] and less than 10 nM in assay [2].

The values above are taken from patent publication US8598154B2 (Corcept Therapeutics, Inc., priority 2010, dated 2013).
